This assay deals with T1, Axl (Homo sapiens, UniProt P30530).
T1 construct: endogenous in cells; host or cells: HeLa cells
T1 sequence (P30530 26-894): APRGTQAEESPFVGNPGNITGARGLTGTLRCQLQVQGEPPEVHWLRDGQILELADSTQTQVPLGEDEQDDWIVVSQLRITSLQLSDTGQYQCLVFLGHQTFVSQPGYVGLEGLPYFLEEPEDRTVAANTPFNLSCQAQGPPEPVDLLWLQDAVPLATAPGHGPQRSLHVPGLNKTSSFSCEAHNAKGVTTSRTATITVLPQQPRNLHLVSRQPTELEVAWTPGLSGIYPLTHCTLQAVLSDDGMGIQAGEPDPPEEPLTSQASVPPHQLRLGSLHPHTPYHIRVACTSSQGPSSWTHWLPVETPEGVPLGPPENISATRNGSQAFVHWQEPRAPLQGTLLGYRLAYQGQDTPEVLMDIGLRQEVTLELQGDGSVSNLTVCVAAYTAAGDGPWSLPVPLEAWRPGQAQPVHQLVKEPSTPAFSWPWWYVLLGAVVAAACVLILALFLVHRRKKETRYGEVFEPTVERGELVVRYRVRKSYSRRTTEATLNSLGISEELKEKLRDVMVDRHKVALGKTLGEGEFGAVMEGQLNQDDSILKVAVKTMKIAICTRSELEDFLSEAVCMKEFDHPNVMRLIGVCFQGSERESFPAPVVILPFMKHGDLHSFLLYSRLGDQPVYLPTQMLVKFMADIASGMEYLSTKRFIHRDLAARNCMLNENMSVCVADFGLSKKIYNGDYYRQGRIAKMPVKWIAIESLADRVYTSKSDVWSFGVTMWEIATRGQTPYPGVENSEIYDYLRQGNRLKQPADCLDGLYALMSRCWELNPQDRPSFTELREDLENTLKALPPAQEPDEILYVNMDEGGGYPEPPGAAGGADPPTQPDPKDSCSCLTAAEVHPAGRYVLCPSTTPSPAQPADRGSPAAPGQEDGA
Nature of the assay: Phospho-Akt in-cell Western assay (inhibition of Axl activity, Axl-antibody cross-linking stimulation). In kind it is cell-based. The following applies: Hela cells, phospho-Akt readout; compounds of formula (Ia), Table 1. As to the method: The compounds of the invention were tested in the following assay for their ability to inhibit Axl activity.
Phospho-Akt in-Cell Western Assay
• Cell culture plate: 96 well assay plate (Corning 3610), white, clear bottom, tissue-culture treated. • Cells: Hela cells. • Starvation medium: For Axl stimulation: 0.5% FCS (fetal calf serum) in DMEM, plus Axl/Fc (extracellular domain of AXL fused to immunoglobulin Fc region) (R&D, 154-AL) 500 ng/mL. • For EGF (epidermal growth factor) stimulation: 0.5% FCS in DMEM (Dulbecco's modified Eagles medium). • Poly-L-Lysine 0.01% solution (the working solution): 10 μg/ml, dilute In PBS (phosphate buffered saline). • Axl antibody cross-linking: • 1st: Mouse anti-Axl (R&D, MAB154). • 2nd: Biotin-SP-conjugated AffiniPure goat anti-mouse IgG (H+L) (Jackson ImmunoResearch #115-065-003). • Fixing buffer: 4% formaldehyde in PBS. • Wash buffer: 0.1% TritonX-100 in PBS. • Quenching buffer: 3% H2O2, 0.1% Azide in wash buffer, Azide and hydrogen peroxide (H2O2) are added fresh. • Blocking buffer: 5% BSA in TBST (tris buffered saline plus 0.1% Tween 20). • Primary antibody: Rabbit anti-human Phospho-Akt antibody (Cell Signaling 9271): 1×250 diluted in blocking buffer. • Secondary antibody: HRP (horse radish peroxidase)-conjugated Goat anti-Rabbit secondary, stock solution: Jackson ImmunoResearch (Goat anti-Rabbit HRP, #111-035-144) 1:1 diluted in glycerol, store at −20° C. The working solution: 1×2000 dilution of stock in blocking buffer. • Chemiluminescent working solution (Pierce, 37030): SuperSignal ELISA (enzyme linked immunosorbant assay) Pico Chemiluminescent substrate. • Crystal Violet solution: Stock: 2.5% Crystal violet in methanol, filtered and kept at ambient temperature. The working solution: dilute the stock 1:20 with PBS immediately before use.
10% SDS: working solution: 5% SDS (sodium dodecylsulfate), diluted in PBS
A 96 well TC (tissue culture treated) plate was coated with 10 μg/mL poly-L-Lysine at 37° C. for 30 min, washed twice with PBS, and air-dried for 5 minutes before cells were added. Hela cells were seeded at 10,000 cells/well and the cells were starved in 100 μL starvation medium containing Axl/Fc for 24 hrs.
The cells were pre-treated with test compounds by adding 100 μL of 2× test compound to the starvation medium on the cells. The cells were incubated at 37° C. for 1 hr before stimulation.
The cells were stimulated by Axl-antibody cross-linking as follows: A 5×1st/2nd Axl antibody mixture was made (37.5 μg/mL 1st/100 μg/mL 2 nd) in starvation medium and nutated at 4° C. with thorough mixing for 1-2 hours for clustering. The resulting mix was warmed to 37° C. 50 μL of 5×Axl 1st/2nd of antibody cluster was added to the cells and the cells were incubated at 37° C. for 5 min.
After 5 minutes stimulation, the plate was flicked to remove medium and the plate was tapped onto paper towels. Formaldehyde (4.0% in PBS, 100 μL) was added to fix the cells and the cells were incubated at ambient temperature for 20 min without shaking.
The cells were washed with a plate washer buffer to remove the formaldehyde solution. The plate was flicked to removed excess wash buffer and tapped onto paper towels. Quenching buffer (100 μL) was added to each well and the cells were incubated at ambient temperature for 20 minutes without shaking.
The cells were washed with a plate washer buffer to remove the quenching buffer. Blocking buffer (100 μL) was added and the cells were incubated at ambient temperature for at least an hour with gentle shaking.
The cells were washed with a plate washer buffer and diluted primary antibody (50 μL) was added to each well (blocking buffer was added to the negative control wells instead). The plates were incubated overnight at 4° C. with gentle shaking.
The wash buffer was removed, diluted secondary antibody (100 μL) was added, and the cells were incubated at ambient temperature for 1 hour with gentle shaking. […]

In general, IC50 refers to the concentration that inhibits the measured activity by half. Low values mean greater potency, high ones weaker potency.

SMILES strings stand for the structures.

Take `COc1cc2ncnc(-n3nc(Nc4ccc(N5CCCN(C6CC7CCC6C7)CC5)nc4)nc3N)c2cc1OC` (centres unmarked) [compound 47, 1-(6,7-dimethoxy-quinazoline-4-yl)-N^3-(6-(4-(bicyclo [2.2.1]heptan-2-yl)-1,4-diazepan-1-yl)pyridin-3-yl)-1H-1,2,4-triazole-3,5-diamine]: the IC50 was under 1000 nM.
Compound `COc1cc2ncnc(-n3nc(Nc4cnc5c(c4)CCN(C4CCCC4)CC5)nc3N)c2cc1OC` [compound 13, 1-(6,7-dimethoxy-quinazoline-4-yl)-N^3-(7-cyclopentyl-6,7,8,9-tetrahydro-5H-pyrido[3,2-d]azepin-3-yl)-1H-1,2,4-triazole-3,5-diamine] had an IC50 of under 1000 nM.
Compound `Cc1csc2c(-n3nc(Nc4cnc5c(c4)CNCC5)nc3N)nc(Cl)nc12` [compound 25, 1-(2-chloro-7-methylthieno [3,2-d]pyrimidine-4-yl)-N^3-(5,6,7,8-tetrahydro-1,6-naphthyridin-3-yl)-1H-1,2,4-triazole-3,5-diamine] registered an IC50 of under 1000 nM.
The same measure for `COc1cc2ncnc(-n3nc(Nc4ccc(C=CCN5CCC(N(C)C)C5)nc4)nc3N)c2cc1OC` (centres unmarked) [compound 79, 1-(6,7-dimethoxy-quinazoline-4-yl)-N^3-(6-(3-(3-(dimethyl-amino)pyrrolidin-1-yl)propenyl)pyridin-3-yl)-1H-1,2,4-triazole-3,5-diamine]: under 1000 nM; for `Cc1csc2c(-n3nc(Nc4ccc(C=CCN5CCOCC5)nc4)nc3N)ncnc12` [compound 126, 1-(7-methylthieno [3,2-d]pyrimidin-4-yl)-N^3-(2-(3-(morpholin-4-yl)propen-1-yl)pyridin-5-yl)-1H-1,2,4-triazole-3,5-diamine]: under 1000 nM.
Regarding `Cc1csc2c(-n3nc(Nc4cnc5c(c4)CC(NC4CCN(C)CC4)CC5)nc3N)nc(Cl)nc12` (centres unmarked) [compound 51, 1-(2-chloro-7-methylthieno [3,2-d]pyrimidine-4-yl)-N^3-(6-(1-methyl-piperidin-4-ylamino)-5,6,7,8-tetrahydro-quinolin-3-yl)-1H-1,2,4-triazole-3,5-diamine], the IC50 was under 1000 nM.
Then `Cc1cc(Nc2nc(N)n(-c3ncnc4ccsc34)n2)cnc1N1CCN([C@H]2CC3CCC2C3)[C@@H](C)C1` (stereo partly drawn) [compound 108, 1-(thieno [3,2-d]pyrimidin-4-yl)-N^3-(2-(3-(S)-methyl-4-(2S)-bicyclo[2.2.1]heptan-2-ylpiperazin-1-yl)-3-methylpyridin-5-yl)-1H-1,2,4-triazole-3,5-diamine], with under 1000 nM.
Then `Cc1cc(Nc2nc(N)n(-c3nnc(C)c4ccsc34)n2)cnc1N1CCN([C@H]2C[C@@H]3CC[C@H]2C3)CC1` [compound 112, 1-(4-methylthieno [3,2-d]pyridazine-7-yl)-N^3-(2-(4-(1S,2S,4R)-bicyclo[2.2.1]heptan-2-ylpiperazin-1-yl)-3-methylpyridin-5-yl)-1H-1,2,4-triazole-3,5-diamine], with over 20000 nM.
For `Cc1cc(Nc2nc(N)n(-c3nccc4occc34)n2)cnc1N1CCC(N2CCCC2)CC1` [compound 53, 1-(furo[3,2-c]pyridine-4-yl)-N^3-(6-(4-(pyrrolidin-1-yl)piperidin-1-yl)-5-methylpyridin-3-yl)-1H-1,2,4-triazole-3,5-diamine], the IC50 is under 1000 nM.
`Cc1csc2c(-n3nc(Nc4cnc5c(c4)CC(N)CC5)nc3N)nc(Cl)nc12` (centres unmarked) [compound 30, 1-(2-chloro-7-methylthieno [3,2-d]pyrimidin-4-yl)-N^3-(6-amino-5,6,7,8-tetrahydro-quinolin-3-yl)-1H-1,2,4-triazole-3,5-diamine]: the IC50 is under 1000 nM.
The same measure for `COc1cc2ncnc(-n3nc(Nc4ccc(C=CCN5CCC(N(C)C)CC5)nc4)nc3N)c2cc1OC` [compound 69, 1-(6,7-dimethoxy-quinazoline-4-yl)-N^3-(6-(3-(4-dimethyl-amino-piperidin-1-yl)propenyl)pyridin-3-yl)-1H-1,2,4-triazole-3,5-diamine]: under 1000 nM.
Then `Cc1csc2c(-n3nc(Nc4ccc(Br)nc4)nc3N)ncnc12` [compound 118, 1-(7-methylthieno [3,2-d]pyrimidin-4-yl)-N^3-(2-bromopyridin-5-yl)-1H-1,2,4-triazole-3,5-diamine], with over 20000 nM; and `Cc1csc2c(-n3nc(Nc4cnc5c(c4)CN(C(=O)C4CCN(C)CC4)CC5)nc3N)nc(Cl)nc12` [compound 61, 1-(2-chloro-7-methylthieno [3,2-d]pyrimidin-4-yl)-N^3-(6-(1-methyl-piperidin-4-ylcarbonyl)-5,6,7,8-tetrahydro-1,6-naphthyridin-3-yl)-1H-1,2,4-triazole-3,5-diamine], with under 1000 nM; and `COc1cc2ncnc(-n3nc(Nc4ccc(Br)nc4)nc3N)c2cc1OC` [compound 59, 1-(6,7-dimethoxy-quinazoline-4-yl)-N^3-(6-bromopyridin-3-yl)-1H-1,2,4-triazole-3,5-diamine], with over 20000 nM.
Then `Cc1csc2c(-n3nc(Nc4ccc(C=CCN5CCC(N6CCCC6)CC5)nc4)nc3N)ncnc12` [compound 122, 1-(7-methylthieno [3,2-d]pyrimidin-4-yl)-N^3-(2-(3-(4-pyrrolidin-1-yl-piperidin-1-yl)propen-1-yl)pyridin-5-yl)-1H-1,2,4-triazole-3,5-diamine], with under 1000 nM.
As to `CCN(CC)C1CCN(c2ccc(Nc3nc(N)n(-c4ncnc5cc(OC)c(OC)cc45)n3)cn2)C1` (centres unmarked) [compound 45, 1-(6,7-dimethoxy-quinazoline-4-yl)-N^3-(6-(3-diethyl-amino-pyrrolidin-1-yl)pyridin-3-yl)-1H-1,2,4-triazole-3,5-diamine], the IC50 was under 1000 nM.
The same measure for `Cc1csc2c(-n3nc(Nc4cnc5c(c4)CC(N4CCN(C)CC4)CC5)nc3N)nc(Cl)nc12` (centres unmarked) [compound 66, 1-(2-chloro-7-methylthieno [3,2-d]pyrimidin-4-yl)-N^3-(6-(4-methyl-piperazin-1-yl)-5,6,7,8-tetrahydro-quinolin-3-yl)-1H-1,2,4-triazole-3,5-diamine]: under 1000 nM.
